Assay results from article PMC4145316, “Cytotoxic and Apoptosis-Inducing Activity of Triterpene Glycosides from Holothuria scabra and Cucumaria frondosa against HepG2 Cells” (Marine Drugs, 2014).
In brackets after ≈: the same amount, converted by molar mass.

Tests used:
[1] = tested on: human hepatoma (HepG2) cells; test: MTT cytotoxicity assay, HepG2 cells; assay type: cell-based; conditions: for IC50 (μg/mL) HepG2: means ± SD (n = 3); for IC50: Homo sapiens, HepG2, means ± SD (n = 3), read-out: IC50 (μg/mL) HepG2
Experimental: (§1) Human hepatoma (HepG2), human cervical cancer (HeLa), human leukemia (K562) and human liver (HL-7702) cells were obtained by Shanghai Institute of Biochemistry and Cell Biology, and maintained in the logarithmic phase of growth in RPMI-1640 complete medium supplemented with 2 mM L-glutamine (Sigma Chemical Co., Saint Louis, MO, USA), 100 IU/mL penicillin, 100 μg/mL streptomycin and 10% FCS at 37 °C under humidified air with 5% CO2.
(§2) The effect of compounds 1–13 on the viability of HepG2, HeLa, K562 and HL-7702 cells was determined by MIT assay as described previously. Briefly, the tumor and normal cells were seeded at 1 × 10^4 cells/well in a 96-well microtiter plate and incubated at 37 °C in a humidified atmosphere with 5% CO2. After 24 h, compounds 1–13, the positive drug CDDP or RPMI-1640 medium were added into each well, and the plates were incubated at 37 °C for the indicated time. Each concentration was repeated four wells. 50 μL of MTT solution (2 mg/mL) was added to each well 4 h before incubation end, and incubated further for 4 h. The plates were centrifuged (1400× g, 5 min) and the untransformed MTT was removed carefully by pipetting. To each well, 150 μL of DMSO was added and the absorbance was evaluated in an ELISA reader at 570 nm after 15 min. The inhibitory rates and 50% inhibitory concentrations (IC50) values towards cell viability were calculated by NDST software. Each test was performed in triplicate.

[2] = tested on: human leukemia (K562) cells; test: MTT cytotoxicity assay, K562 cells; assay type: cell-based; conditions: for IC50 (μg/mL) K562: means ± SD (n = 3); for IC50: Homo sapiens, K562, means ± SD (n = 3), read-out: IC50 (μg/mL) K562
Experimental: as §1, §2

[3] = tested on: human cervical cancer (HeLa) cells; test: MTT cytotoxicity assay, HeLa cells; assay type: cell-based; conditions: means ± SD (n = 3); for IC50: Homo sapiens, HeLa, read-out: IC50 (μg/mL) HeLa
Experimental: as §1, §2

[4] = tested on: human liver (HL-7702) cells; test: MTT cytotoxicity assay, normal HL-7702 cells; assay type: cell-based; conditions: for IC50 (μg/mL) HL-7702 / IC50: MTT assay, normal hepatocytes, means ± SD (n = 3); for Ratio (HL-7702/HepG2): ratio of IC50 values against HL-7702 and HepG2 cells, selective cytotoxicity; for IC50: Homo sapiens, L02, read-out: IC50 (μg/mL) HL-7702
Experimental: as §1, §2

[5] = tested on: HeLa cells; design: method as in PMID 18288810; conditions: cited from earlier work
[6] = tested on: human gastric cancer MKN-45 cells; conditions: read-out: IC50 against MKN-45 cells; cited from earlier work

Molecule	IC50 (μg/mL) HepG2 [1] [µg/mL]	IC50 (μg/mL) K562 [2] [µg/mL]	IC50 (μg/mL) HeLa [3] [µg/mL]	IC50 (μg/mL) HL-7702 [4] [µg/mL]	Ratio (HL-7702/HepG2) [4]	IC50 against HeLa cells [5] [µg/mL]	IC50 [6] [nM]	Ratio (HL-7702/HepG2) ([4]; listed as 10)	IC50 [1] [µg/mL]	IC50 [2] [µg/mL]	IC50 [3] [µg/mL]	IC50 [4] [µg/mL]
24-Dehydro frondoside A6 [24-Dehydro frondoside A6 (13)]	3.57 ± 0.54	5.61 ± 1.05	3.16 ± 0.34	7.55 ± 0.83	2.12							
okhotosides B3						17.8						
CC(C)CCC[C@]1(C)OC(=O)C23[C@@H](O)C=C4[C@@H](CC[C@H]5C(C)(C)C(O[C@@H]6OC[C@@H](OS(=O)(=O)O)[C@H](O)[C@H]6O[C@@H]6O[C@H](C)[C@@H](O)[C@H](O)[C@H]6O)CC[C@]45C)[C@]2(C)CC[C@@]31O (stereo partly drawn) [echinoside B, reference compound]							180					
CO[C@@H]1[C@@H](O)[C@H](O[C@@H]2[C@@H](O)[C@H](O[C@H]3[C@H](O)[C@@H](O)[C@H](O[C@H]4[C@H](O[C@H]5CC[C@]6(C)C7=C[C@H](O)[C@]89C(=O)O[C@@](C)(C(O)CCC(C)C)[C@@]8(O)CC[C@@]9(C)[C@@H]7CC[C@H]6C5(C)C)OC[C@@H](OS(=O)(=O)[O-])[C@@H]4O)O[C@@H]3C)O[C@H](CO)[C@H]2O)O[C@H](CO)[C@H]1O.[Na+] (stereo partly drawn) [Holothurin A1 (7), Holothurin A1]	2.90 ± 0.21	6.50 ± 0.01	2.84 ± 0.09	3.59 ± 0.05	1.24							
Scabraside B [Scabraside B (9)]	7.29 ± 0.62	11.85 ± 2.26	4.44 ± 0.85	11.03 ± 1.37	1.51							
N.N.[Cl][Pt][Cl] [CDDP, cis-diamminedichloroplatinum, reference compound]	2.05 ± 0.13	2.99 ± 0.24	3.41 ± 0.37	4.48 ± 0.41	2.18							
CO[C@@H]1[C@@H](O)[C@H](CO)O[C@@H](O[C@H]2[C@@H](O)[C@@H](O[C@H]3[C@@H](O)[C@@H](O[C@H]4OC[C@@H](O)[C@@H](O)[C@@H]4O)[C@H](O[C@H]4[C@H](O[C@H]5CC[C@@]6(C)[C@H](CC=C7[C@@H]6CC[C@]68C(=O)O[C@](C)(CCCC(C)C)[C@H]6[C@H](OC(C)=O)C[C@@]78C)C5(C)C)OC[C@@H](OS(=O)(=O)O)[C@H]4O)O[C@@H]3C)OC[C@@H]2O)[C@@H]1O [Frondoside A1 (10), Frondoside A1]	1.91 ± 0.03 (≈ 1.45 µM)	2.21 ± 0.56 (≈ 1.68 µM)	2.03 ± 0.17 (≈ 1.55 µM)	4.96 ± 1.10 (≈ 3.78 µM)	2.60			more than 2				
Scabraside D [Scabraside D (8)]	3.33 ± 0.33	10.06 ± 1.06	3.84 ± 0.42	4.40 ± 0.22	1.32							
CO[C@@H]1[C@@H](O)[C@H](O[C@@H]2[C@@H](O)[C@H](O[C@H]3[C@H](O)[C@@H](O[C@@H]4OC[C@@H](O)[C@H](O)[C@H]4O)[C@H](O[C@H]4[C@H](OC5CC[C@]6(C)[C@H]7CCC89C(=O)O[C@@](C)(CCCC(C)C)C8[C@@H](OC(C)=O)C[C@@]9(C)C7=CC[C@H]6C5(C)C)OC[C@@H](OS(=O)(=O)O)[C@@H]4O)O[C@@H]3C)OC[C@H]2O)O[C@H](CO)[C@H]1O (stereo partly drawn) [Frondoside A (11), Frondoside A]					1.31				4.14 ± 0.57 (≈ 3.15 µM)	3.76 ± 0.05 (≈ 2.86 µM)	3.3 ± 0.05 (≈ 2.51 µM)	5.42 ± 0.98 (≈ 4.13 µM)
Frondoside A6 [Frondoside A6 (12)]	2.53 ± 0.66	6.59 ± 0.11	3.75 ± 0.51	6.05 ± 0.67	2.39							
Holothurin B4 [Holothurin B4 (4)]	2.71 ± 0.12	3.55 ± 0.53	2.71 ± 0.54	4.58 ± 0.54	1.69							
CO[C@@H]1[C@@H](O)[C@H](O[C@@H]2[C@@H](O)[C@H](O[C@H]3[C@H](O)[C@@H](O)[C@H](O[C@H]4[C@H](O[C@H]5CC[C@]6(C)C7=C[C@H](O)[C@@]89C(=O)O[C@@](C)(C%10CCC(C)(C)O%10)[C@@]8(O)CC[C@@]9(C)[C@@H]7CC[C@H]6C5(C)C)OC[C@@H](OS(=O)(=O)O)[C@@H]4O)O[C@@H]3C)O[C@H](CO)[C@H]2O)O[C@H](CO)[C@H]1O (stereo partly drawn) [Holothurin A (6), Holothurin A]					1.11		2370		3.46 ± 0.33 (≈ 2.88 µM)	8.94 ± 0.01 (≈ 7.45 µM)	3.76 ± 0.47 (≈ 3.14 µM)	3.85 ± 0.32 (≈ 3.21 µM)
okhotosides B2						13.0						
HS-1 [HS-1 (5)]	6.10 ± 0.33	12.95 ± 1.54	3.20 ± 0.32	7.19 ± 0.20	1.18							
C[C@H]1O[C@@H](O[C@H]2[C@H](O[C@H]3CC[C@]4(C)C5=C[C@H](O)C67C(=O)O[C@@](C)(C8CCC(C)(C)O8)[C@@]6(O)CC[C@@]7(C)[C@@H]5CCC4C3(C)C)OC[C@@H](OS(=O)(=O)[O-])[C@@H]2O)[C@H](O)[C@@H](O)[C@@H]1O.[Na+] (stereo partly drawn) [Holothurin B (3), Holothurin B]	1.79 ± 0.02	3.64 ± 0.04	2.05 ± 0.11	2.69 ± 0.45	1.50		1590					
CO[C@@H]1[C@@H](O)[C@H](O[C@@H]2[C@@H](O)[C@H](O[C@H]3[C@H](O)[C@@H](O)[C@H](O[C@H]4[C@H](O[C@H]5CC[C@]6(C)C7=C[C@H](O)C89C(=O)O[C@@](C)(CCC=C(C)C)[C@@]8(O)CC[C@@]9(C)C7CCC6C5(C)C)OC[C@@H](OS(=O)(=O)[O-])[C@@H]4O)O[C@@H]3C)O[C@H](CO)[C@H]2O)O[C@H](CO)[C@H]1O.[Na+] (stereo partly drawn) [24-Dehydro echinoside A (2), 24-Dehydro echinoside A]	1.95 ± 0.09	6.15 ± 0.24	2.06 ± 0.27	3.75 ± 0.40	1.92		1600					
